In patent US20030153538A1, “Antitumor agent” (The Nisshin OilliO, Ltd., priority 2000, published 2003):
Entries after “also recorded” stand apart in the source; their conditions may differ. Like-named read-outs stand apart in the source and are kept apart here.

What was measured:
[1] = tested on: B-16 melanoma cells; assay: Tests for tumor cell-proliferation-inhibitory effect and tumor cell-extinction (cell growth rate from viable cell count); format: cell-based; conditions: for tumor cell-killing effect (in words): at not less than 2 times the concentration required for proliferation inhibition
Method: The tumor cell-proliferation-inhibitory effect and the tumor cell-killing or extinction effect can be determined according to the following method using B-16 melanoma cells.
More specifically, B-16 melanoma cells are inoculated in each well of a 6-well plate in a desired amount, followed by allowing the plate to stand at 37° C. and 5% carbon dioxide concentration to thus cultivate the cells, adding a sample solution to be tested (maslinic acid, erythrodiol, ursolic acid, uvaol, betulinic acid, betulin and physiologically acceptable salts thereof or derivatives thereof) to each well in an amount sufficient for achieving a desired concentration, on the next day or after 5 days from the initiation of the cultivation, determination of viable cell count on the 6th day after the initiation of the cultivation and calculation of the cell growth rate based on the viable cell count to thus evaluate the tumor cell-proliferation-inhibitory effect and the tumor cell-killing effect.
Tests for determining the tumor cell-proliferation-inhibitory effect and the tumor cell-killing effect were conducted according to the following method. To a 6-well plate, a culture medium was dispensed in an amount of 2 mL/well, B-16 melanoma cells were then inoculated in a desired quantity and thereafter the melanoma cells were cultivated by allowing the plate or the culture medium to stand at 37° C. and a carbon dioxide concentration of 5%. On the following day, a test sample solution prepared was added to and admixed with the content of each well to a desired concentration and the cultivation of the melanoma cells was continued. The culture medium was then exchanged on the 5th day from the initiation of the cultivation and the test sample solution was again added to each well. On the next day, the culture medium was removed to recover the cultivated melanoma cells, followed by washing the cells with PBS (phosphate buffered saline), determination of the viable cell count, and then calculation of the cell growth rate according to the following equation 1. The tumor cell-proliferation-inhibitory effect and the tumor cell-killing effect of each test sample were evaluated on the basis of the cell growth rate thus determined.
Cell Growth Rate (%)=(A/B)×100
As comparative examples, oleanolic acid, β-amyrin, α-amyrin and lupeol were added to the culture medium to thus determine and evaluate the cell growth rate by the same method used above.

[2] = tested on: B16 melanoma cells; assay: Test for malignant melanoma metastasis-inhibitory effect (lung metastasis after i.v. injection of B16 melanoma cells); format: in vivo, Whister female rats; conditions: rats; for RMI (rate of metastasis-inhibition): every other day, lung lesions on 15th day; for tumor cell-metastasis-inhibitory effect compared with the control group (in words): metastasis of cancer to lung, summary of Table 2
Method: The tumor cell-metastasis-inhibitory effect can be evaluated according to, for instance, the malignant melanoma metastasis-inhibitory test. More specifically, a suspension of B16 melanoma cells prepared in advance is intravenously injected into Whister female rats, cotton seed oil in which each test substance is dissolved in a predetermined concentration is intraperitoneally administered through injection or orally administered using a sonde, every second day starting from 2nd day after the intravenous injection of the suspension. In this connection, only cotton seed oil is administered to the control group of animals. The lungs are extracted from these animals on the 15th day after the injection of the B16 melanoma cells, the lungs are examined to determine the number of cancer lesions thus metastasized to thus calculate the rate of metastasis-inhibition. The tumor cell-metastasis-inhibitory effect of each test sample is evaluated on the basis of the resulting rate of metastasis-inhibition.
Tests for evaluating the malignant melanoma metastasis-inhibitory effect of each test sample were conducted according to the following method. Whister female rats (6-week-old; average body weight: 160 g) were preliminarily bred with a powdery feed preparation having a composition of AIN-93 for one week, these animals were divided into 5 groups (8 animals per group) so as to equalize the average body weight and then a previously prepared suspension of B16 melanoma cells was intravenously injected into each rat. Subsequently, these animals were bred with a powdery feed preparation having a composition of AIN-93 and cotton seed oil in which each of maslinic acid, erythrodiol, ursolic acid, uvaol, betulinic acid, betulin, compounds of Synthetic Examples 1 and 2, or oleanolic acid had been dissolved in a predetermined concentration was intraperitoneally injected into each animal or orally administered thereto using a sonde, every other day starting from the 2nd day after the injection of the B 16 melanoma cells. In this connection, only cotton seed oil was administered to the control group. On the 15th day after the injection of the B 16 melanoma cells, the lung of each animal was taken out, the lungs were examined to determine the number of cancer lesions thus metastasized and to thus calculate the rate of metastasis-inhibition in accordance with the following equation 2. The tumor cell-metastasis-inhibitory effect of each test sample could be evaluated on the basis of the resulting rate of metastasis-inhibition.
Rate of Metastasis-Inhibition (%)=[(D−C)/D]×100
Wherein C: Average number of cancer lesions metastasized observed in each animal group; and D: average number of cancer lesions metastasized observed in the control group.
Maslinic acid, erythrodiol, ursolic acid, uvaol, betulinic acid, betulin and physiologically acceptable salts thereof or derivatives thereof as well as cotton seed oil as the control were inspected for the rate of metastasis-inhibition (RMI) using the dose and administration methods specified in the following Table 2. In addition, the same procedures used above were repeated except for using oleanolic acid as a comparative sample to thus evaluate the rate of metastasis-inhibition (RMI) thereof.

[3] = Mus musculus, B16, 144 h, 5 ppm, viable cell count vs control on 6th day, read-out: Cell Growth Rate
[4] = Mus musculus, B16, 144 h, 15 ppm, viable cell count vs control on 6th day, read-out: Cell Growth Rate
[5] = Mus musculus, B16, 144 h, 25 ppm, viable cell count vs control on 6th day, read-out: Cell Growth Rate
[6] = Mus musculus, B16, 144 h, viable cell count vs control on 6th day
[7] = 100 mg/body wt. (kg), Oral Adm.
[8] = Mus musculus, B16, 144 h, 20 ppm, viable cell count vs control on 6th day, read-out: Cell Growth Rate

CC1(C)CC[C@]2(CO)CC[C@]3(C)C(=CC[C@@H]4[C@@]5(C)CC[C@H](O)C(C)(C)[C@@H]5CC[C@]43C)[C@@H]2C1 [Erythrodiol]
activity at 5 ppm [1, 3]: 73%
activity at 15 ppm [1, 4]: 69%
activity at 25 ppm [1, 5]: 53%
activity at 50 ppm [1, 6]: 43%
tumor cell-proliferation-inhibitory effect (in words) ([1]; summary of Table 1): quite strong tumor cell-proliferation-inhibitory effects
RMI (rate of metastasis-inhibition) [2, 7]: 56.3%
tumor cell-metastasis-inhibitory effect compared with the control group (in words) [2]: significantly (P<0.05) inhibit any metastasis of cancer to lung

CC1(C)CC[C@]2(C(=O)O)CC[C@]3(C)C(=CC[C@@H]4[C@@]5(C)CC[C@H](O)C(C)(C)[C@@H]5CC[C@]43C)[C@@H]2C1 [Oleanolic acid, oleanolic acid, reference compound]
activity at 15 ppm [1, 4]: 100%
activity at 20 ppm [1, 8]: 100%
activity at 25 ppm [1, 5]: 100%
activity at 30 ppm ([1]; Mus musculus, B16, 144 h, 30 ppm, viable cell count vs control on 6th day): 100%
activity at 40 ppm ([1]; Mus musculus, B16, 144 h, 40 ppm, viable cell count vs control on 6th day): 100%
activity at 50 ppm [1, 6]: 94%
tumor cell-killing effect (in words) [1]: not observed
tumor cell-proliferation-inhibitory effect (in words) ([1]; summary of Table 1): cannot inhibit the proliferation of the B-16 melanoma cells at all
tumor cell-proliferation-inhibitory effect (in words) ([1]; summary of Table 1, listed as oleanolic acid): quite weak tumor cell-proliferation-inhibitory effect only at a higher concentration
RMI (rate of metastasis-inhibition) ([2]; 300 mg/body wt. (kg), Oral Adm.): 9.2%
tumor cell-metastasis-inhibitory effect compared with the control group (in words) [2]: does not possess any tumor cell-metastasis-inhibitory effect; also recorded: Any significant effect was not observed

CC1(C)CC[C@]2(C(=O)O)CC[C@]3(C)C(=CC[C@@H]4[C@@]5(C)C[C@@H](O)[C@H](O)C(C)(C)[C@@H]5CC[C@]43C)[C@@H]2C1 [Purified maslinic acid 1, maslinic acid]
Cell Growth Rate ([1]; 5 ppm, viable cell count vs control on 6th day): 67%
Cell Growth Rate ([1]; 10 ppm, viable cell count vs control on 6th day): 43%
Cell Growth Rate ([1]; 15 ppm, viable cell count vs control on 6th day): 6%
Cell Growth Rate ([1]; 20 ppm, viable cell count vs control on 6th day): 0%
Cell Growth Rate ([1]; 25 ppm, viable cell count vs control on 6th day): 0%
RMI (rate of metastasis-inhibition) ([2]; 50 mg/body wt. (kg), Oral Adm.): 61.4%

CC1(C)CC[C@]2(C(=O)O)CC[C@]3(C)C(=CC[C@@H]4[C@@]5(C)C[C@@H](O)[C@H](O)C(C)(C)[C@@H]5CC[C@]43C)[C@@H]2C1 [Purified maslinic acid 2, maslinic acid]
activity at 5 ppm ([1]; Mus musculus, B16, 144 h, read-out: Cell Growth Rate, 5 ppm, viable cell count vs control on 6th day): 75%
activity at 10 ppm ([1]; Mus musculus, B16, 144 h, read-out: Cell Growth Rate, 10 ppm, viable cell count vs control on 6th day): 47%
activity at 15 ppm ([1]; Mus musculus, B16, 144 h, read-out: Cell Growth Rate, 15 ppm, viable cell count vs control on 6th day): 11%
activity at 20 ppm ([1]; Mus musculus, B16, 144 h, read-out: Cell Growth Rate, 20 ppm, viable cell count vs control on 6th day): 0%
activity at 25 ppm ([1]; Mus musculus, B16, 144 h, read-out: Cell Growth Rate, 25 ppm, viable cell count vs control on 6th day): 0%
RMI (rate of metastasis-inhibition) ([2]; 50 mg/body wt. (kg), I.P. Adm.): 67.3%
RMI (rate of metastasis-inhibition) [2, 7]: 78.6%

C[C@H]1[C@H](C)CC[C@]2(C(=O)O)CC[C@]3(C)C(=CC[C@@H]4[C@@]5(C)CC[C@H](O)C(C)(C)[C@@H]5CC[C@]43C)[C@H]12 [Ursolic acid]
activity at 5 ppm [1, 3]: 64%
activity at 10 ppm ([1]; Mus musculus, B16, 144 h, 10 ppm, viable cell count vs control on 6th day, read-out: Cell Growth Rate): 40%
activity at 15 ppm [1, 4]: 3%
activity at 20 ppm [1, 8]: 0%
activity at 25 ppm [1, 5]: 0%
activity at 50 ppm [1, 6]: 0%
tumor cell-killing effect (in words) [1]: quite intensive tumor cell-killing effects
tumor cell-proliferation-inhibitory effect (in words) ([1]; summary of Table 1): quite strong tumor cell-proliferation-inhibitory effects
RMI (rate of metastasis-inhibition) [2, 7]: 79.5%
tumor cell-metastasis-inhibitory effect compared with the control group (in words) [2]: significantly (P<0.05) inhibit any metastasis of cancer to lung

C[C@H]1[C@H](C)CC[C@]2(CO)CC[C@]3(C)C(=CC[C@@H]4[C@@]5(C)CC[C@H](O)C(C)(C)[C@@H]5CC[C@]43C)[C@H]12 [Uvaol]
activity at 5 ppm [1, 3]: 80%
activity at 15 ppm [1, 4]: 69%
activity at 25 ppm [1, 5]: 49%
activity at 50 ppm [1, 6]: 30%
tumor cell-proliferation-inhibitory effect (in words) ([1]; summary of Table 1): quite strong tumor cell-proliferation-inhibitory effects
RMI (rate of metastasis-inhibition) [2, 7]: 43.7%
tumor cell-metastasis-inhibitory effect compared with the control group (in words) [2]: significantly (P<0.05) inhibit any metastasis of cancer to lung

CC1(C)CC[C@]2(C(=O)O)CC[C@]3(C)C(=CC[C@@H]4[C@@]5(C)C[C@@H](O)[C@H](O)C(C)(C)[C@@H]5CC[C@]43C)[C@@H]2C1 [maslinic acid]
tumor cell-killing effect (in words) [1]: quite intensive tumor cell-killing effects
tumor cell-proliferation-inhibitory effect (in words) ([1]; summary of Table 1): quite strong tumor cell-proliferation-inhibitory effects
tumor cell-metastasis-inhibitory effect compared with the control group (in words) [2]: significantly (P<0.05) inhibit any metastasis of cancer to lung
